# Measured values reported in patent publication US4851221A, “Liquid calcium supplementation from readily soluble mixtures of calcium compound and citric acid” (Mission Pharmacal Company, priority 1986, dated 1989).
# Where a name gives a salt, the structure may show the parent alone.
# What was measured:
# [1] = radiocalcium absorption (fecal recovery of radioactive calcium); type: in vivo; conditions: 6 normal subjects; oral radiocalcium-labeled; mean ± SD; * p < 0.05 vs tricalcium dicitrate (pre-mix 1.25)
# Protocol: (§1) The pre-mixes yielded greater absorbability of calcium than tricalcium dicitrate. […] The calcium absorption was also measured more directly from the recovery of radiocalcium after taking labeled calcium preparations in 6 normal subjects.
# [2] = indirect method of oral calcium loading: increment in urinary calcium; type: in vivo; conditions: second two hours after oral 500 mg calcium; 10 normal subjects; mean ± SD; ** p < 0.01 vs tricalcium dicitrate (pre-mixes 1.5 and 1.25)
# Protocol: as §1
# This indirect measure of calcium absorption was greatest for the pre-mix with a calcium/citrate molar ratio of 1.25 than for other pre-mixes.
# [3] = during treatment; cited from earlier work
# [4] = blood pressure in essential hypertension; type: in vivo; conditions: 800 mg calcium/day
# [5] = oral; comparable amount; cited from earlier work
# [6] = in vivo; cited from earlier work
# [7] = cited from earlier work
# [8] = cited from earlier work; remark: listed apart in the source
# [9] = patients with absorptive hypercalciuria; cited from earlier work
structure (smiles),measurement,setting,value
"O=C(O)CC(O)(CC(=O)O)C(=O)O [Tricalcium Dicitrate, tricalcium dicitrate]",Calcium Absorption,[1],19.1 ± 6.9%
same,Increment in Urinary Calcium,[2],0.087 ± 0.087 mg calcium/100 ml glomerular f
same,urinary citrate change,[3],Urinary citrate rose significantly during calcium citrate treatment
same,control of hyperphosphatemia,"1.5-2.75 g calcium/day, preliminary data",satisfactory control of hyperphosphatemia could be achieved in the majority of patients
same,serum aluminum concentration after treatment,"after 8 weeks of treatment, p< 0.05, 1.5-2.75 g calcium/day",79 ng/mL
same,serum aluminum concentration before treatment,before treatment,127 ng/mL
same,effect on blood pressure,[4],Neither calcium carbonate nor tricalcium dicitrate (800 mg calcium/day) was effective in lowering blood pressure
same,calcium absorbability versus calcium carbonate,[5],more calcium was absorbable from calcium citrate than from a comparable amount of calcium carbonate
[OH][Al]([OH])[OH] [aluminum hydroxide],aluminum accumulation / osteomalacia,[6],aluminum accumulation in the body causing a vitamin D resistant osteomalacia
O=C(O)O [calcium carbonate],absorption of ingested phosphate,"[7]; 3-20 g calcium/day, Clarkson et al.",prevent the absorption of ingested phosphate
same,urinary citrate change,[3],not during calcium carbonate therapy
same,effect on blood pressure,[4],Neither calcium carbonate nor tricalcium dicitrate (800 mg calcium/day) was effective in lowering blood pressure
same,prevention of vertebral bone loss,"[8]; Christiansen et al., postmenopausal women",ineffective in preventing vertebral bone loss
O=C(O)CC(O)(CC(=O)O)C(=O)O [calcium citrate],serum phosphate concentration,"[7]; 2 g calcium/day, patients with renal failure, McDonald et al.",effective in restoring normal serum phosphate concentration
O=C(O)[C@H](O)[C@@H](O)[C@H](O)[C@H](O)CO [calcium gluconate],urinary calcium / activity product ratio (calcium oxalate saturation),[9],"increased urinary calcium, leading to an increased activity product ratio"
CC#C[C@]1(O)CC[C@H]2[C@@H]3CCc4cc(O)ccc4[C@H]3CC[C@@]21C [estrogen],prevention of further bone losses,"[8]; Recker et al., osteoporosis prone postmenopausal women",may be prevented by estrogen treatment
